# Non-standard residues stand in square brackets, D forms with d. Residues, ends and D or L forms follow the SMILES beside them. pGlu = O=C1CC[C@@H](C(=O)O)N1
# How the values were obtained:
# apTKRPR-A [1] = target: T1, apTKRPR-A (Aplysia californica, UniProt A0AAU7SSZ1); test: Cell surface expression by ELISA after ligand exposure, FLAG-apTKRPR-A; type: cell-based; details: 10 µM, different durations, compared with 0 min, n = 4
# T1 sequence (A0AAU7SSZ1 1-398): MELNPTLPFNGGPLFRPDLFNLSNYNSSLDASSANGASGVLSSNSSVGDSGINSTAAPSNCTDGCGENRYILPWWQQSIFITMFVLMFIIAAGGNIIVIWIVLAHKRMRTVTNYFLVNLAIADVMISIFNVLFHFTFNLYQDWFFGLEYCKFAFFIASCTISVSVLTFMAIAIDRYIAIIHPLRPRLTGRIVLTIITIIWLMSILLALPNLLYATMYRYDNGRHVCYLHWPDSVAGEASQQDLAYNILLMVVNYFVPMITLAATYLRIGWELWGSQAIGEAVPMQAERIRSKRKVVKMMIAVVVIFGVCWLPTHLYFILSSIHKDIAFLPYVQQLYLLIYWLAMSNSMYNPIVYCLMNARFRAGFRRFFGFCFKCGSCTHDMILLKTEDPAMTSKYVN
# Experimental: (§1) Cell surface expression determination of apTKRPRs and mutant receptors, all with FLAG tags, was performed using a procedure modified from previous work ([64], [122], [123], [124]). Specifically, CHO-K1 cells were cultured in F-12K medium (Gibco, 21127-022) with 10% FBS (Genial, G11-70500) at 37 °C in a humidified incubator containing 5% CO2. When the cells were grown to 70 to 90% confluence, transfection experiments were performed (see “Cell culture and transfection” section). After 24 h, transfected cells were plated in 96-well white clear-bottom cell culture plates (Corning, 3610) at a density of 20,000 cells in 100 μl per well and incubated overnight. The following day, culture media was aspirated and cells were washed twice with 200 μl of 1× PBS (Procell, PB180327). Then, 100 μl of 1× PBS containing 5% (w/v) BSA was added to each well and incubated at room temperature. After 30 min, 100 μl of 1:10,000 anti-FLAG M2-horseradish peroxidase conjugate (Sigma-Aldrich, Cat A8592) was added to each well and incubated for 30 min at 37 °C. Cells were washed twice with 200 μl of 1× PBS and then incubated with 200 μl of TMB Chromogen Solution (Sangon Biotech, E661007) for 30 min at 37 °C in the dark. Finally, 50 μl of ELISA Stopping Solution (Sangon Biotech, E661006) was added to each well to stop the reaction. The absorbance at 450 nm was measured using a Tecan Spark microplate reader. […]
# [2] = system: putative neuropeptide FF receptor (apNPFFR); test: IP1 accumulation assay, CHO-K1 cells transiently expressing putative neuropeptide FF receptor; type: cell-based, Aplysia californica; details: 10^-5 M compared with 10^-10 M (control); n = 3; no Gαq cotransfection
# Experimental: To express putative Aplysia receptors transiently in CHO-K1 cells, the cDNAs were subcloned into the pcDNA3.1(+) or pcDNA3.1(+)-FLAG (for ELISA experiments only, see “Cell surface expression analysis by ELISA” section) expression vector. On the day before transfection, the CHO-K1 cells were passaged into 60 mm diameter tissue culture–treated dishes, and the transfection experiments were performed when the cells were grown to 70 to 90% confluence. CHO-K1 cells were transfected with the cDNA plasmid constructs using Turbofect Transfection reagent (Thermo Fisher Scientific, R0531), following the manufacturer’s instructions. In brief, 4 μg of the putative receptor plasmids [in pcDNA3.1(+) or pcDNA3.1(+)-FLAG] were mixed with 400 μl of Opti-MEM (Gibco, 11058021), followed by the addition of 15 μl of TurboFect Transfection reagent and incubated at room temperature for 15 min. The DNA/TurboFect mixture dropwise was then added to the dish, and the cells were incubated at 37 °C in a humidified incubator containing 5% CO2 overnight.
# The next day, transfected cells were trypsinized and reseeded in an opaque white 96-well half-area (Corning, 3688) or 384-well tissue culture–treated plates (Corning, 3570) at a density of 20,000 cells/well in F-12K and 10% FBS and incubated at 37 °C in a humidified incubator containing 5% CO2 overnight. On the third day, the activation of the putative receptors was detected by monitoring intracellular IP1 concentration using an IP-One Gq kit (Cisbio, 62IPAPEB) in Tecan Spark. Except for using 0.5x reagent, all other procedures were performed following the manufacturer’s instructions. IP1 accumulation assay measures the accumulation of IP1, which is hydrolyzed from the second messenger, and inositol triphosphate. Inositol triphosphate is generated by the Gαq pathway when a GPCR is activated by an appropriate ligand.
# apTKRPR-B T391 = apTKRPR-B T391 (Aplysia californica, UniProt A0AAU7STS1, DEL392-447); test: Cell surface expression by ELISA after ligand exposure, truncated apTKRPR-B T391; type: cell-based; details: 10 µM, 60 min, n = 5
# Experimental: as §1
# apTKRPR-A [3] = target: T1, apTKRPR-A; test: Receptor desensitization assay, protocol 2 (repeated agonist exposure), apTKRPR-A; type: cell-based; details: 10 μM pretreatment 2-60 min without LiCl, wash, second 10 μM application for 15 min with LiCl; % of control; n = 5
# Experimental: Therefore, we adopted two protocols to study the desensitization of apTKRPRs. The protocols were performed using a procedure modified from previous work ([87], [88], [89]).
# Protocol 2 ([89]): To simulate repeated stimulation with an agonist, we examined agonist-induced desensitization by quantifying the accumulation level of IP1 after two applications of the agonist/ligand. Because the IP1 accumulation assay involves using LiCl to stop the degradation of IP1, in this protocol, LiCl was applied only during the second application of the agonist. Specifically, to elicit desensitization, cells were first exposed to 10 μM apTKRP-2b in the absence of LiCl for various pretreatment durations (pretreatment stage/phase Ⅰ). After this agonist exposure, cells were washed (three times) rapidly with PBS (phase Ⅱ), and the wash was consistently performed in each experiment. Responsiveness of the receptor was then assessed by measuring intracellular concentrations of IP1 accumulation in response to a second application of 10 μM apTKRP-2b for 15 min in the presence of LiCl (phase Ⅲ) (Fig. S11).
# apTKRPR-B T391, sequence (A0AAU7STS1 entry or part of it, stated change not applied): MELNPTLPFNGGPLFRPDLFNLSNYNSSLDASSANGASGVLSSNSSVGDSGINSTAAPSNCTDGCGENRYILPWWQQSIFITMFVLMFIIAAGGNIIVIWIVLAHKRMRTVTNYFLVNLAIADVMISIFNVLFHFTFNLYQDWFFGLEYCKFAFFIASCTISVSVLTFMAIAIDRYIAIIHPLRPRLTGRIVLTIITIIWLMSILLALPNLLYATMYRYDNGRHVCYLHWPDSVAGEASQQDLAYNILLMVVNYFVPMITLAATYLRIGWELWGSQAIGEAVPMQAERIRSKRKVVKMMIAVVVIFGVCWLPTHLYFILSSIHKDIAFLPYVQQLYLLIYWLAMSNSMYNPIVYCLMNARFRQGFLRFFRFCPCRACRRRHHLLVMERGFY
smiles,measurement,setting,value
CC(C)C[C@H](NC(=O)[C@H](Cc1c[nH]cn1)NC(=O)[C@@H]1CCCN1C(=O)[C@@H]1CCC(=O)N1)C(=O)NCC(=O)N[C@@H](Cc1ccccc1)C(=O)N[C@@H](Cc1c[nH]cn1)C(=O)NCC(=O)N[C@@H](CO)C(=O)N[C@@H](CCCNC(=N)N)C(N)=O [apTKRP-2b] ([pGlu]PHLGFHGSR-NH2),cell surface receptor expression of apTKRPR-A after agonist exposure,apTKRPR-A [1],significant loss of receptor expression
same,IP1 response of putative apNPFFR in screening,[2],did not respond
same,cell surface receptor expression of T391 after agonist exposure,apTKRPR-B T391,did not change significantly
same,"IP1 accumulation after pretreatment, apTKRPR-A (protocol 2)",apTKRPR-A [3],IP1 accumulation was less after the second exposure
